# Data from US20220132854A1, “STABLE LIQUID COMPOSITIONS AND METHODS OF USING THE SAME” (priority 2019, published 2022).
# Test: Storage stability of liquid compositions, 8 weeks at 40° C., loss by HPLC
# Assay type: physicochemical
# Conditions: same inert ingredients as Composition #7 of Table 3; aged 8 weeks at 40° C.
# Description: To test stability, the compositions were sealed in a container and stored for 8 weeks at 40° C. The relative percentage loss of halosulfuron-methyl was calculated using high performance liquid chromatography (HPLC). The samples were extracted with solvents and then analyzed with reverse phase HPLC equipped with UV detector. The response from the detector are peak areas (mAu*s). The peak areas were correlated with percentage active ingredients through a standard calibration curve. The percentage of pesticide was calculated through the calibration curve. Chemically stable compositions are those compositions that had less than 5% (w/w) relative loss of halosulfuron-methyl after 8 weeks of storage at 40° C.
# The compositions described herein lose 5% (w/w) or less of the pesticide after storing the liquid composition for 8 weeks at 40° C. in a sealed container. Alternatively, the compositions described herein comprise at least 95% (w/w) of the pesticide after storing the liquid composition for 8 weeks at 40° C. in a sealed container. The percent loss is measured by quantitative chromatography, such as High Performance Liquid Chromatography (HPLC).
smiles,measurement,value
"COC(=O)c1sccc1S(=O)(=O)NC(=O)Nc1nc(C)nc(OC)n1 [Thifensulfuron-methyl, thifensulfuron-methyl]",relative loss of thifensulfuron-methyl,less than 5 % w/w
